Test results published in patent US12390536B2, “Antibody-drug complex containing toll-like receptor 7/8 dual agonist compound” (ASTELLAS PHARMA INC., priority 2022, dated 2025).
Counter-ions that a name gives are not always drawn.

target: T1, human TLR7 (Homo sapiens, UniProt Q9NYK1); test: TLR7/8 reporter assay (HEK293, NFκB Nanoluc luciferase reporter), human TLR7; type: cell-based; conditions: 24-hour incubation; read-out: hTLR7 EC50
T1 construct: expressed in transfected cells
T1 sequence (Q9NYK1 27-1049): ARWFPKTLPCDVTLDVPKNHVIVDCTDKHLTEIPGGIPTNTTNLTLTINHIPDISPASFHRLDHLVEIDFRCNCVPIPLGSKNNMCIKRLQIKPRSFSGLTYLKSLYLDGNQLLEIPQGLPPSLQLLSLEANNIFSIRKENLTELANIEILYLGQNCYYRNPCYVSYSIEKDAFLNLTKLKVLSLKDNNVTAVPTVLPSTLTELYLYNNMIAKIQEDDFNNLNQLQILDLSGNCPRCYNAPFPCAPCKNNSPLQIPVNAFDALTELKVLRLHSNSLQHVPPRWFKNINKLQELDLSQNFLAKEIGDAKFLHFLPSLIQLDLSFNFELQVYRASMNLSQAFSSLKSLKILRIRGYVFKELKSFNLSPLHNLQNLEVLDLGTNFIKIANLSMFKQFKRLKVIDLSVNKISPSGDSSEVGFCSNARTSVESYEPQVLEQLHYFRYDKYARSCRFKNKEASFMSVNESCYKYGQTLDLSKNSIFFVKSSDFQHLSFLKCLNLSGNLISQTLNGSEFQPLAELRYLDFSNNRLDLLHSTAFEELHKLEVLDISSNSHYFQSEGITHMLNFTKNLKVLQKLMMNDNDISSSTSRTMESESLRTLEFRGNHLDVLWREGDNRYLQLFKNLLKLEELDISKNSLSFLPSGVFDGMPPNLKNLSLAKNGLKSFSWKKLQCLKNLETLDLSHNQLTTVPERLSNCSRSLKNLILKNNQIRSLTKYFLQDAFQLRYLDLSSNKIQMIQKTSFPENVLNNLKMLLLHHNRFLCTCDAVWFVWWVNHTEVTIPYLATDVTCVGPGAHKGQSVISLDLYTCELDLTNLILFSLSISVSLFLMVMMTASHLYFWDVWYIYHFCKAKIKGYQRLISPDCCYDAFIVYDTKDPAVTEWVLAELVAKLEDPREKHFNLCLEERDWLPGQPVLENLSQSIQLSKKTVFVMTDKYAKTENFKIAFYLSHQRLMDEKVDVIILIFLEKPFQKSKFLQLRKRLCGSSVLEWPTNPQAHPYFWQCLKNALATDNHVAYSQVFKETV
Protocol: HEK293 cells (ATCC, #CRL-1573) were co-transfected with an expression vector having a nucleotide sequence encoding a TLR (human TLR7, human TLR8 or mouse TLR7) protein and a Nanoluc PEST luciferase reporter vector having an NFκB response element sequence (Genbank: JQ513377 bases 33 to 84) integrated therein. Thereafter, the transfected cells were cultured in DMEM (Sigma-Aldrich, #D5796-500 mL) containing Geneticin (Gibco, #10131-027) at a final concentration of 800 μg/mL, Hygromycin B (Invitrogen, #10687010) at a final concentration of 500 μg/mL, penicillin streptomycin (Gibco, #15070-063) at a final concentration of 1% and a 10% fetal bovine serum (FBS) (HyClone, #SH30084.03) to obtain a stable cell line for expression.
To reporter cells obtained above, DMEM containing 10% FBS was added to prepare a suspension of 1×10^5 cells/mL. The suspension was added to the wells of a 384-well white plate coated with collagen I (hereinafter referred to as “384-well plate”, Corning, #356703) at a rate of 20 μL per well. The cells were cultured in the conditions of 37° C. and 5% CO2, overnight (18 hours) and allowed to adhere to the plate. A test sample was dissolved in DMSO. The solution was diluted by adding DMEM medium containing 10% FBS to the solution such that the concentration becomes 5-fold as high as a final concentration. The diluted DMEM medium was added to the wells of the 384-well plate at a ratio of 5 μL/well. After the medium was further incubated in the conditions of 37° C. and 5% CO2 for 24 hours, the plate was taken out and allowed to stand still at room temperature for 10 minutes. Thereafter, chemiluminescence was measured using Nano-Glo Luciferase Assay System (Promega, #N1120) and EnVision 2104 (PerkinElmer) plate reader. A dose-response curve was prepared for each test sample and the EC50 value was obtained as a concentration at 50% of the maximum signal. In the table, hTLR7 represents human TLR7 and hTLR8 represents human TLR8; and mTLR7 represents mouse TLR7. A data item attached with an asterisk (*) indicates the result of 7 hour-incubation and other data items are the results of 24-hour incubation.

**Q.** Which EC50 does the source give for `CCCCCNc1nc(N)nc2ccn(Cc3ccc(CN4CCNC[C@H]4CF)cc3OC)c12` [Ex1, 5-[(4-{[(2S)-2-(fluoromethyl)piperazin-1-yl]methyl}-2-methoxyphenyl)methyl]-N^4-pentyl-5H-pyrrolo[3,2-d]pyrimidine-2,4-diamine] here?
**A.** 1.12 nM

**Q.** `CCCCCSc1nc(N)nc2ccn(Cc3ccc(CN4CCNCC4)cc3OC)c12` [Ex4, 5-({2-methoxy-4-[(piperazin-1-yl)methyl]phenyl}methyl)-4-(pentylsulfanyl)-5H-pyrrolo[3,2-d]pyrimidin-2-amine] was tested. Which EC50 did it give?
**A.** 54.2 nM

**Q.** Which EC50 does the source give for `CCCCCNc1nc(N)nc2cc(C)n(Cc3ccc(CN4CCNCC4)cc3OC)c12` [Ex8, 5-({2-methoxy-4-[(piperazin-1-yl)methyl]phenyl}methyl)-6-methyl-N^4-pentyl-5H-pyrrolo[3,2-d]pyrimidine-2,4-diamine hydrochloride] here?
**A.** 11.3 nM

**Q.** For `CCCCCNc1nc(N)nc2ccn(Cc3ccc(CC4CCNCC4)cc3OC)c12` [Ex9, 5-({2-methoxy-4-[(piperidin-4-yl)methyl]phenyl}methyl)-N^4-pentyl-5H-pyrrolo[3,2-d]pyrimidine-2,4-diamine], which EC50 is on record?
**A.** 2.78 nM

**Q.** How did the EC50 turn out when `COc1cc(CN2CCNC[C@H]2CF)ccc1Cn1ccc2nc(N)nc(SCc3cc(C)on3)c21` [Ex11] was run?
**A.** 17.8 nM

**Q.** How did the EC50 turn out when `CCCCCNc1nc(N)nc2c(Br)cn(Cc3ccc(CN4CCC[C@H]4CO)cc3OC)c12` [Ex7, {(2S)-1-[(4-{[2-amino-7-bromo-4-(pentylamino)-5H-pyrrolo[3,2-d]pyrimidin-5-yl]methyl}-3-methoxyphenyl)methyl]pyrrolidin-2-yl}methanol] was run?
**A.** 8.1 nM

**Q.** Which EC50 does the source give for `CCCCCNc1nc(N)nc2ccn(Cc3ccc(CN4CCN[C@@H](CF)C4)cc3OC)c12` [Ex2, 5-[(4-{[(3R)-3-(fluoromethyl)piperazin-1-yl]methyl}-2-methoxyphenyl)methyl]-N^4-pentyl-5H-pyrrolo[3,2-d]pyrimidine-2,4-diamine (trifluoroacetic acid) salt] here?
**A.** 1.77 nM

**Q.** Which EC50 does the source give for `CCCCCNc1nc(N)nc2ccn(Cc3ccc(CNCC4CCC4)cc3OC)c12` [Ex12] here?
**A.** 1.87 nM

**Q.** For `CCCCCNc1nc(N)nc2c(Cl)cn(Cc3ccc(CN4CC[C@H]4CO)cc3OC)c12` [Ex17], which EC50 is on record?
**A.** 2.52 nM

**Q.** `CCCCCNc1nc(N)nc2c(Cl)cn(Cc3ccc(CN4CCC[C@H]4CO)cc3OC)c12` [Ex6, {(2S)-1-[(4-{[2-amino-7-chloro-4-(pentylamino)-5H-pyrrolo[3,2-d]pyrimidin-5-yl]methyl}-3-methoxyphenyl)methyl]pyrrolidin-2-yl}methanol] was tested. Which EC50 did it give?
**A.** 3.22 nM

**Q.** With `CCCCCNc1nc(N)nc2ccn(Cc3ccc(CNC4CC4)cc3OC)c12` [Ex3, 5-({4-[(cyclopropylamino)methyl]-2-methoxyphenyl}methyl)-N^4-pentyl-5H-pyrrolo[3,2-d]pyrimidine-2,4-diamine] as the compound, how does the EC50 read?
**A.** 3.47 nM

**Q.** Which EC50 does the source give for `CCCCCNc1nc(N)nc2c(Cl)cn(Cc3ccc(CN4CCC[C@H]4C(C)(C)O)cc3OC)c12` [Ex18] here?
**A.** 6.57 nM

**Q.** With `CCCCCSc1nc(N)nc2ccn(Cc3ccc(CN4CC[C@@H](CN)C4)cc3OC)c12` [Ex15] as the compound, how does the EC50 read?
**A.** 138 nM

**Q.** With `CCCCCSc1nc(N)nc2ccn(Cc3ccc(CN4CCC[C@H]4CO)cc3OC)c12` [Ex5, {(2S)-1-[(4-{[2-amino-4-(pentylsulfanyl)-5H-pyrrolo[3,2-d]pyrimidin-5-yl]methyl}-3-methoxyphenyl)methyl]pyrrolidin-2-yl}methanol] as the compound, how does the EC50 read?
**A.** 45 nM

**Q.** How did the EC50 turn out when `CCCCCNc1nc(N)nc2ccn(Cc3ccc(CN4CCNC[C@@H]4CF)cc3OC)c12` [Ex10, 5-[(4-{[(2R)-2-(fluoromethyl)piperazin-1-yl]methyl}-2-methoxyphenyl)methyl]-N^4-pentyl-5H-pyrrolo[3,2-d]pyrimidine-2,4-diamine] was run?
**A.** 2.74 nM

**Q.** For `CCCCCSc1nc(N)nc2ccn(Cc3ccc(CN4CCC(O)CC4)cc3OC)c12` [Ex14], which EC50 is on record?
**A.** 28.8 nM

**Q.** For `CCCCCSc1nc(N)nc2ccn(Cc3ccc(CN4CC[C@H]4CO)cc3OC)c12` [Ex13], which EC50 is on record?
**A.** 23.3 nM
